Converted amounts (≈) assume the structure as drawn. The source made the active and inactive calls. The calls are words filed in the database; no cut-off is given here.

Test [1] has as its system Staphylococcus aureus. The experiment in a line: Antibacterial activity against Staphylococcus aureus after 24 hrs by broth dilution method. The format is functional.
Test [2] has as its system Escherichia coli. The experiment in a line: Antibacterial activity against Escherichia coli after 24 hrs by broth dilution method. It counts as functional.
Test [3] relates to Aspergillus flavus. The experiment in a line: Antifungal activity against Aspergillus flavus at >100 ug/mL after 48 hrs. The format is functional, organism-based.
In test [4] the test system is Trichophyton mentagrophytes. Put plainly: Antifungal activity against Trichophyton mentagrophytes by measuring inhibition zone after 48 hrs. The format is functional.
Test [5] relates to Trichophyton mentagrophytes. The experiment in a line: Antifungal activity against Trichophyton mentagrophytes after 48 hrs. The format is functional.
For test [6], the system named is Talaromyces marneffei. The experiment in a line: Antifungal activity against Penicillium marneffei by measuring inhibition zone after 48 hrs. It counts as functional.
Test [7] relates to Talaromyces marneffei. The experiment in a line: Antifungal activity against Penicillium marneffei after 48 hrs. It counts as functional.
In test [8] the test system is Candida albicans. The experiment in a line: Antifungal activity against Candida albicans by measuring inhibition zone after 48 hrs. The format is functional.
Test [9] has as its system Candida albicans. The experiment in a line: Antifungal activity against Candida albicans after 48 hrs. The format is functional.
Test [10] concerns Aspergillus fumigatus. Put plainly: Antifungal activity against Aspergillus fumigatus by measuring inhibition zone after 48 hrs. It counts as functional.
For test [11], the system named is Aspergillus fumigatus. The experiment in a line: Antifungal activity against Aspergillus fumigatus after 48 hrs. The format is functional.
Test [12] concerns Streptococcus pyogenes. Put plainly: Antibacterial activity against Streptococcus pyogenes after 24 hrs by broth dilution method. It counts as functional.
The subject of test [13] is Pseudomonas aeruginosa. The experiment in a line: Antibacterial activity against Pseudomonas aeruginosa at >100 ug/mL after 24 hrs by broth dilution method. The format is functional, organism-based.
The subject of test [14] is Klebsiella pneumoniae. The experiment in a line: Antibacterial activity against Klebsiella pneumoniae at >100 ug/mL after 24 hrs by broth dilution method. The format is functional, organism-based.
In test [15] the test system is Staphylococcus aureus. The experiment in a line: Antibacterial activity against Staphylococcus aureus after 24 hrs. The format is functional.
Test [16] relates to Escherichia coli. The experiment in a line: Antibacterial activity against Escherichia coli after 24 hrs. The format is functional.
Test [17] relates to Streptococcus pyogenes. Put plainly: Antibacterial activity against Streptococcus pyogenes after 24 hrs. The format is functional.
Test [18] relates to Pseudomonas aeruginosa. Put plainly: Antibacterial activity against Pseudomonas aeruginosa after 24 hrs by broth dilution method. The format is functional.
Test [19] relates to Pseudomonas aeruginosa. The experiment in a line: Antibacterial activity against Pseudomonas aeruginosa after 24 hrs. The format is functional.
Test [20] concerns Aspergillus flavus. The experiment in a line: Antifungal activity against Aspergillus flavus by measuring inhibition zone after 48 hrs. The format is functional.
For test [21], the system named is Aspergillus flavus. The experiment in a line: Antifungal activity against Aspergillus flavus after 48 hrs. It counts as functional.
The test system of test [22] is Klebsiella pneumoniae. The experiment in a line: Antibacterial activity against Klebsiella pneumoniae after 24 hrs by broth dilution method. It counts as functional.
In test [23] the test system is Klebsiella pneumoniae. The experiment in a line: Antibacterial activity against Klebsiella pneumoniae after 24 hrs. The format is functional.
In test [24] the test system is Talaromyces marneffei. The experiment in a line: Antifungal activity against Penicillium marneffei at >100 ug/mL after 48 hrs. It counts as functional, organism-based.

Consider `COc1ccc(-c2csc3nnc(Cc4ccc(Cl)cc4Cl)c(=O)n23)cc1`, for which the MIC was determined as 12.5 µg/mL (≈ 29.9 µM) in the test with Staphylococcus aureus [1]; 6.25 µg/mL (≈ 14.9 µM) in the test with Escherichia coli [2]; 6.25 µg/mL (≈ 14.9 µM) in test [5]; 25 µg/mL (≈ 59.8 µM) with Talaromyces marneffei [7]; 6.25 µg/mL (≈ 14.9 µM) in the test on Candida albicans [9]; 6.25 µg/mL (≈ 14.9 µM) against Aspergillus fumigatus [11]. Moreover, the MIC in the test with Streptococcus pyogenes [12] came to 25 µg/mL (≈ 59.8 µM). The inhibition entry in the test on Aspergillus flavus [3], in the test on Pseudomonas aeruginosa [13] and in the test on Klebsiella pneumoniae [14] was “inactive” in each case. The “inhibition zone (IZ)” value in test [4] is given as 17 mm; in the test on Talaromyces marneffei [6], 9 mm; in the test with Candida albicans [8], 17 mm; in the test on Aspergillus fumigatus [10], 20 mm; with Staphylococcus aureus [15], 12 mm; in the test on Escherichia coli [16] it was 22 mm. Moreover, the “inhibition zone (IZ)” value in the test with Streptococcus pyogenes [17] worked out at 8 mm.

Regarding `O=c1c(Cc2ccc(Cl)cc2)nnc2scc(-c3ccc([N+](=O)[O-])cc3)n12`, the MIC with Staphylococcus aureus [1] is 25 µg/mL (≈ 62.7 µM); against Escherichia coli [2] it was 6.25 µg/mL (≈ 15.7 µM); in [5], 25 µg/mL (≈ 62.7 µM); against Talaromyces marneffei [7], 6.25 µg/mL (≈ 15.7 µM); in the test with Candida albicans [9], 6.25 µg/mL (≈ 15.7 µM); with Aspergillus fumigatus [11] it was 6.25 µg/mL (≈ 15.7 µM). The minimum inhibitory concentration (MIC) against Pseudomonas aeruginosa [18] and against Streptococcus pyogenes [12] was 25 µg/mL (≈ 62.7 µM) throughout. For the same molecule, the inhibition entry with Aspergillus flavus [3] and in the test with Klebsiella pneumoniae [14] was “inactive” each time. Moreover, the “inhibition zone (IZ)” value in [4] is recorded as 7 mm; in the test on Talaromyces marneffei [6] it was 21 mm; with Candida albicans [8], 18 mm; in the test with Aspergillus fumigatus [10], 15 mm; in the test on Staphylococcus aureus [15], 9 mm; in the test on Escherichia coli [16] it was 25 mm. Moreover, the results for the “inhibition zone (IZ)” value in the test on Pseudomonas aeruginosa [19] and in the test on Streptococcus pyogenes [17] were 8 mm and 9 mm, respectively.

As for `O=c1c(Cc2ccc(Cl)cc2)nnc2scc(-c3ccc(Cl)cc3)n12`, the “inhibition zone (IZ)” value stood at 22 mm in the test with Aspergillus flavus [20]; 25 mm in [4]; 22 mm in the test with Talaromyces marneffei [6]; 20 mm with Candida albicans [8]; 22 mm in the test with Aspergillus fumigatus [10]; 23 mm in the test on Staphylococcus aureus [15]. The “inhibition zone (IZ)” value with Escherichia coli [16] is reported as 26 mm; in the test on Pseudomonas aeruginosa [19], 33 mm; in the test on Klebsiella pneumoniae [23], 20 mm; with Streptococcus pyogenes [17], 23 mm. The MIC (with Staphylococcus aureus [1]; against Escherichia coli [2]; with Aspergillus flavus [21]; in [5]; against Talaromyces marneffei [7]; with Candida albicans [9]) was 6.25 µg/mL (≈ 16.1 µM) throughout. The MIC against Aspergillus fumigatus [11], against Pseudomonas aeruginosa [18], in the test with Klebsiella pneumoniae [22] and in the test on Streptococcus pyogenes [12] was 6.25 µg/mL (≈ 16.1 µM) each time.

Take `O=c1c(Cc2ccc(Cl)cc2Cl)nnc2scc(-c3ccc(Br)cc3)n12`: the “inhibition zone (IZ)” value with Aspergillus flavus [20] is reported as 16 mm; in test [4] it was 11 mm; in the test with Candida albicans [8], 7 mm; in the test with Aspergillus fumigatus [10], 12 mm; in the test on Staphylococcus aureus [15], 21 mm; with Escherichia coli [16], 26 mm. Besides, the “inhibition zone (IZ)” value with Pseudomonas aeruginosa [19] was found to be 29 mm; with Klebsiella pneumoniae [23], 18 mm; with Streptococcus pyogenes [17], 20 mm. In addition, the minimal inhibitory concentration (MIC) in the test with Staphylococcus aureus [1] was 6.25 µg/mL (≈ 13.4 µM); with Escherichia coli [2], 6.25 µg/mL (≈ 13.4 µM); in the test on Aspergillus flavus [21] it was 6.25 µg/mL (≈ 13.4 µM); in [5] it was 12.5 µg/mL (≈ 26.8 µM); against Candida albicans [9], 25 µg/mL (≈ 53.5 µM); in the test with Aspergillus fumigatus [11] it was 12.5 µg/mL (≈ 26.8 µM). Also, the MIC in the test on Pseudomonas aeruginosa [18], in the test on Klebsiella pneumoniae [22] and in the test on Streptococcus pyogenes [12] was 6.25 µg/mL (≈ 13.4 µM) in each case. In addition, the inhibition result in the test with Talaromyces marneffei [24] was “inactive”.

On to `O=C(O)c1cn(C2CC2)c2cc(N3CCNCC3)c(F)cc2c1=O` [CIPROFLOXACIN], for which the MIC against Klebsiella pneumoniae [22] and in the test with Streptococcus pyogenes [12] was 6.25 µg/mL (≈ 18.9 µM) each time. The “inhibition zone (IZ)” value with Staphylococcus aureus [15] is 23 mm; in the test on Escherichia coli [16], 30 mm; in the test with Pseudomonas aeruginosa [19], 33 mm; in the test on Klebsiella pneumoniae [23], 22 mm; in the test on Streptococcus pyogenes [17], 25 mm.

Values taken from ChEMBL document CHEMBL1275296, “Synthesis and antimicrobial studies of thiazolotriazinones” (2010).
